These results are taken from US20250388592A1 (REMYND N.V., priority 2022, published 2025).

The assay concerns M17_3TAU(P301L) cells. The experiment in a line: TAU-induced cytotoxicity (LDH) in the neuroblastoma tauopathy model. The class given is cell-based. Conditions: Homo sapiens, 168 h, inhibition of TAU-induced toxicity, 7 days retinoic acid differentiation, LDH readout. A digest of the protocol:
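Stably transfected BE-M17 cells expressing human TAU-P301L, seeded in serum-free detection medium, then differentiated with 2.5 μM RA (added in equal volume) for 7 days at 37° C/5% CO2 to induce TAU aggregation. Cytotoxicity = supernatant LDH increase over total LDH; EC50 from dose-dependent inhibition curves.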
Take `O=C(Cc1ccc(Cl)cc1)N1CC2(CN(CC3CCCCC3)C2)C1` [Cpd B056, 2-(4-chlorophenyl)-1-(6-(cyclohexylmethyl)-2,6-diazaspiro[3.3]heptan-2-yl)ethanone]: the half-maximal effective concentration (EC50) (as a rule, the midpoint of the concentration-response curve) amounted to 1.44 nM.

For the compound `Cn1cc(CN2CC3(C2)CN(C(=O)NCC2CCC(F)(F)CC2)C3)c(Cl)n1` [Cpd B204], a half-maximal response (EC50) required 54.9 nM.

Compound `O=C(OCC1CCC(F)(F)CC1)N1CC2(CN(Cc3ccccc3C(F)(F)F)C2)C1` [Cpd B165] registered a concentration giving a half-maximal response (EC50) of 2.49 nM.

`Cc1cccnc1CN1CC2(C1)CN(C(=O)CC1CCC(F)(F)CC1)C2` [Cpd B083] had an EC50 of 18.9 nM.

`Cc1cccnc1CN1CC2(C1)CN(C(=O)CC1CCCC1)C2` [Cpd B437]: the half-maximal effective concentration (EC50) amounted to 354 nM.

With `Cc1ccccc1CC(=O)N1CC2(CN(Cc3ncccc3C)C2)C1` [Cpd B430], it took 690 nM to reach a half-maximal effect (EC50).

Take `O=C(CC1CCC(F)(F)CC1)N1CC2(CN(Cc3ccccc3C(F)(F)F)C2)C1` [Cpd B108]: the EC50 is 2.58 nM.

In the case of `O=C(CC1CCC(F)(F)CC1)N1CC2(CN(Cc3ccc(Cl)cc3F)C2)C1` [Cpd B106], the EC50 is less than 0.19 nM.

`Cc1cccnc1CN1CC2(C1)CN(C(=O)Cc1cccc(C(F)(F)F)c1)C2` [Cpd B079] gave a concentration giving a half-maximal response (EC50) of 13.4 nM.

With `Cn1cnc(CN2CC3(C2)CN(C(=O)CC2CCC(F)(F)CC2)C3)c1` [Cpd B126], the concentration for a half-maximal effect (EC50) amounted to 192 nM.

Take `O=C(OC1CCC(F)(F)CC1)N1CC2(CN(Cc3ccc(F)cc3F)C2)C1` [Cpd B152]: the EC50 turned out to be 2.76 nM.

In the case of `O=C(Cc1ccc(F)cc1)N1CC2(CN(CCc3cccc(F)c3)C2)C1` [Cpd B024, 2-(4-Fluoro-phenyl)-1-{6-[2-(3-fluoro-phenyl)-ethyl]-2,6-diaza-spiro[3.3]hept-2-yl}-ethanone], the half-maximal effective concentration (EC50) came to 26.7 nM.

Consider `O=S(=O)(c1ccc(OC(F)(F)F)cc1)N1CC2(CN(Cc3ccc(F)cc3)C2)C1` [Cpd B217], for which a half-maximal response (EC50) required 0.46 nM.

With `Cn1cnc(CN2CC3(C2)CN(C(=O)NCC2CCC(F)(F)CC2)C3)c1Cl` [Cpd B447], a half-maximal effect (EC50) was put at 148 nM.

Compound `O=C(Cc1ccc(Cl)cc1)N1CC2(CN(Cc3ccc(F)c(F)c3)C2)C1` [Cpd B055, 2-(4-chlorophenyl)-1-(6-(3,4-difluorobenzyl)-2,6-diazaspiro[3.3]heptan-2-yl)ethanone] gave a 50% effective concentration (EC50) of 5.13 nM.

As for `Cc1nc(CN2CC3(C2)CN(C(=O)CC2CCC(F)(F)CC2)C3)sc1C` [Cpd B451], the EC50 stood at 106 nM. This EC50 lies about 21-fold higher than the previous one.

As for `Cc1cccnc1CN1CC2(C1)CN(C(=O)c1cc3ccccc3o1)C2` [Cpd B412], the midpoint of the response, the EC50, lay at 2850 nM.

On to `Cc1cccnc1CN1CC2(C1)CN(S(=O)(=O)Cc1ccc(F)cc1)C2` [Cpd B213], for which the response was half-maximal at 14.6 nM (EC50).

Compound `Cc1cccnc1CN1CC2(C1)CN(C(=O)CCC1CCCCC1)C2` [Cpd B081] yielded an EC50 of 9.69 nM.

Compound `CCCN1CC2(C1)CN(C(=O)Cc1ccc(Cl)cc1)C2` [Cpd B042, 2-(4-chlorophenyl)-1-(6-propyl-2,6-diazaspiro[3.3]heptan-2-yl)ethanone] showed an EC50 of 32.8 nM. This EC50 is about 3.4-fold higher than that of the compound before.

Take `O=C(Nc1cccc(C(F)(F)F)c1)N1CC2(CN(Cc3ccc(F)cc3)C2)C1` [Cpd B189]: the EC50 was 10.6 nM.

As to `FC(F)(F)c1cccc(CNC2CC3(C2)CC(Nc2nc(Cc4ccc(Cl)cc4)ns2)C3)c1` (stereo not drawn) [Cpd B325, N-(3-(4-chlorobenzyl)-1,2,4-thiadiazol-5-yl)-N′-(3-(trifluoromethyl)benzyl) spiro[3.3]heptane-2,6-diamine], the EC50 was determined as 36.2 nM.

In the case of `Cc1cccnc1CN1CC2(C1)CN(C(=O)Nc1ccc(Cl)cc1)C2` [Cpd B179], the response was half-maximal at 16.1 nM (EC50).

Take `O=C(Cc1ccc(Cl)cc1)N1CC2(CN(Cc3cscn3)C2)C1` [Cpd B043, 2-(4-chlorophenyl)-1-(6-(thiazol-4-ylmethyl)-2,6-diazaspiro[3.3]heptan-2-yl)ethanone]: the midpoint of the response, the EC50, lay at 79.5 nM.

As to `Cc1nc(CN2CC3(C2)CN(C(=O)Cc2ccccc2F)C3)cs1` [Cpd B424], the 50% effective concentration (EC50) came out at 930 nM. This EC50 lies about 12-fold higher than the previous one.

`O=C(NCC1CCC(F)(F)CC1)N1CC2(CN(Cc3ncccc3C(F)(F)F)C2)C1` [Cpd B197] registered an EC50 of 12.8 nM.

`O=C(Cc1ccc(F)cc1)NC1CC2(CC(NCc3ccccc3)C2)C1` (stereo not drawn) [Cpd B066, N-(6-(benzylamino)spiro[3.3]heptan-2-yl)-2-(4-fluorophenyl)acetamide] displayed a concentration giving a half-maximal response (EC50) of 130 nM. This EC50 is about 10-fold higher than that of the compound before.

Turning to `CN(Cc1ccccc1)C1CC2(CC(Nc3nc(Cc4ccc(F)cc4)ns3)C2)C1` (stereo not drawn) [Cpd B302, N-benzyl-N′-(3-(4-fluorobenzyl)-1,2,4-thiadiazol-5-yl)-N-methyl spiro[3.3]heptane-2,6-diamine], a half-maximal effect (EC50) was put at 0.9 nM.

`COc1cccc(CNC2CC3(C2)CC(Nc2nc(Cc4ccc(Cl)cc4)ns2)C3)c1OC` (stereo not drawn) [Cpd B314, N-(3-(4-chlorobenzyl)-1,2,4-thiadiazol-5-yl)-N′-(2,3-dimethoxybenzyl) spiro[3.3]heptane-2,6-diamine] yielded an EC50 of 3 nM.

In turn, `Cc1cccnc1CN1CC2(C1)CN(C(=O)C(F)(F)c1ccc(F)cc1)C2` [Cpd B087] came in with an EC50 of 1020 nM.

For the compound `O=C(Cc1ccc(F)cc1)N1CC2(CN(CCc3ccccc3)C2)C1` [Cpd B030, 2-(4-Fluoro-phenyl)-1-(6-phenethyl-2,6-diaza-spiro[3.3]hept-2-yl)-ethanone], a half-maximal effect (EC50) was put at 37.7 nM.

The compound `Cc1nc(CN2CC3(C2)CN(C(=O)NCC2CCC(F)(F)CC2)C3)cs1` [Cpd B194] yielded a half-maximal effective concentration (EC50) of 264 nM.

In the case of `O=C(Cc1ccc(Cl)cc1)N1CC2(CN(CCc3cccc(F)c3)C2)C1` [Cpd B045, 2-(4-chlorophenyl)-1-(6-(3-fluorophenethyl)-2,6-diazaspiro[3.3]heptan-2-yl)ethanone], the midpoint of the response, the EC50, lay at 11.6 nM.

Compound `Cc1cccnc1CN1CC2(C1)CN(C(=O)c1cccc3cc[nH]c13)C2` [Cpd B086] showed a concentration for a half-maximal effect (EC50) of 437 nM.

`O=C(NCc1ccc(F)cc1)N1CC2(CN(Cc3ccc(F)cc3)C2)C1` [Cpd B188]: the response was half-maximal at 53 nM (EC50).

In turn, `COc1ccc(OC)c(CNC2CC3(C2)CC(Nc2nc(Cc4ccc(Cl)cc4)ns2)C3)c1` (stereo not drawn) [Cpd B327, N-(3-(4-chlorobenzyl)-1,2,4-thiadiazol-5-yl)-N′-(2,5-dimethoxybenzyl) spiro[3.3]heptane-2,6-diamine] showed an EC50 of 9.9 nM.

For `Cn1cc(CN2CC3(C2)CN(C(=O)OCC2CCC(F)(F)CC2)C3)c(Cl)n1` [Cpd B157], the EC50 turned out to be 9.33 nM. This EC50 and that of the compound before are within 1.5-fold of each other.

For `O=C(CC1CCC(F)(F)CC1)N1CC2(CN(Cc3ccc(C(F)(F)F)cc3)C2)C1` [Cpd B109], a half-maximal effect (EC50) was put at 12.1 nM.

In the case of `O=C(Cc1ccc(Cl)cc1)N1CC2(CN(CCc3ccc(F)cc3)C2)C1` [Cpd B048, 2-(4-chlorophenyl)-1-(6-(4-fluorophenethyl)-2,6-diazaspiro[3.3]heptan-2-yl)ethanone], the half-maximal effective concentration (EC50) stood at 8.85 nM.

On to `COc1cc(CN2CC3(C2)CN(C(=O)Cc2ccc(Cl)cc2)C3)ccn1` [Cpd B005, 2-(4-chlorophenyl)-1-(6-((2-methoxypyridin-4-yl)methyl)-2,6-diazaspiro[3.3]heptan-2-yl)ethanone], for which the EC50 is 162 nM.

As for `O=C(OCC1CCC(F)(F)CC1)N1CC2(CN(Cc3ncccc3F)C2)C1` [Cpd B162], the EC50 stood at 51.6 nM.

In turn, `Cc1nc(CN2CC3(C2)CN(C(=O)Nc2cccc(C(F)(F)F)c2)C3)cs1` [Cpd B176] registered a concentration giving a half-maximal response (EC50) of 73.4 nM.

As for `Clc1ccc(Cc2nsc(NC3CC4(CC(NCc5cc(Cl)ccc5Cl)C4)C3)n2)cc1` (stereo not drawn) [Cpd B308, N-(3-(4-chlorobenzyl)-1,2,4-thiadiazol-5-yl)-N′-(2,5-dichlorobenzyl) spiro[3.3]heptane-2,6-diamine], a half-maximal effect (EC50) was put at 3.8 nM.

Turning to `Cc1cccnc1CN1CC2(C1)CN(C(=O)CC13CC(C1)C3)C2` [Cpd B408], the EC50 is 4000 nM.

Consider `O=C(NC1CCCCC1)N1CC2(CN(Cc3ccc(F)cc3)C2)C1` [Cpd B454], for which it took 76.6 nM to reach a half-maximal effect (EC50).

Compound `O=C(OC1CCC(F)(F)CC1)N1CC2(CN(Cc3ccc(Cl)cc3F)C2)C1` [Cpd B150] came in with a concentration for a half-maximal effect (EC50) of less than 0.19 nM.

As for `COc1cccc(CN2CC3(C2)CN(C(=O)Nc2cccc(OC)c2)C3)c1` [Cpd B420], the 50% effective concentration (EC50) came out at 1210 nM.

`Cc1nc(CN2CC3(C2)CN(C(=O)Cc2ccc(F)c(C(F)(F)F)c2)C3)cs1` [Cpd B101] registered a concentration giving a half-maximal response (EC50) of 76.6 nM.

Turning to `O=C(CC1CCC(F)(F)CC1)N1CC2(CN(Cc3ccc(Cl)cn3)C2)C1` [Cpd B113], it took 12.3 nM to reach a half-maximal effect (EC50).

As for `CC(c1cccc(C(F)(F)F)c1)N1CC2(CN(C(=O)Cc3ccc(F)cc3)C2)C1` (stereo not drawn) [Cpd B015, 2-(4-Fluoro-phenyl)-1-{6-[1-(3-trifluoromethyl-phenyl)-ethyl]-2,6-diaza-spiro[3.3]hept-2-yl}-ethanone], the response was half-maximal at 9.54 nM (EC50).

Take `CC(c1ccccc1)N1CC2(CN(C(=O)Cc3ccc(Cl)cc3)C2)C1` (stereo not drawn) [Cpd B065, 2-(4-chlorophenyl)-1-(6-(1-phenylethyl)-2,6-diazaspiro[3.3]heptan-2-yl)ethanone]: the EC50 amounted to 3.23 nM.

`COc1cccc(CN2CC3(C2)CN(C(=O)CN(C)c2ccccc2)C3)c1` [Cpd B075] yielded an EC50 of 61.3 nM.

Take `Cc1c(CN2CC3(C2)CN(C(=O)CC2CCC(F)(F)CC2)C3)cnn1C` [Cpd B461]: the 50% effective concentration (EC50) is 56.5 nM.

`Cc1ccc(CCN2CC3(C2)CN(C(=O)Cc2ccc(Cl)cc2)C3)cc1` [Cpd B047, 2-(4-chlorophenyl)-1-(6-(4-methylphenethyl)-2,6-diazaspiro[3.3]heptan-2-yl)ethanone] gave a 50% effective concentration (EC50) of 13.6 nM.

For the compound `Cc1ccc(CN2CC3(C2)CN(C(=O)Cc2ccc(F)cc2)C3)cc1` [Cpd B009, 2-(4-Fluoro-phenyl)-1-[6-(4-methyl-benzyl)-2,6-diaza-spiro[3.3]hept-2-yl]-ethanone], the EC50 was found to be 1.06 nM.

Take `O=C(OC1CCC(F)(F)CC1)N1CC2(CN(Cc3ccc(F)cc3Cl)C2)C1` [Cpd B151]: the response was half-maximal at 0.52 nM (EC50).

Compound `COc1cccc(CN2CC3(C2)CN(C(=O)Cc2ccc(F)cc2)C3)c1` [Cpd B008, 2-(4-Fluoro-phenyl)-1-[6-(3-methoxy-benzyl)-2,6-diaza-spiro[3.3]hept-2-yl]-ethanone] yielded an EC50 of 4 nM.
